Test: mn = molality of the nth substance listed, in mol/kg
Conditions: 101 kPa, Liquid; for speed of sound: Sing-around technique in a fixed-path interferometer; for mass density: Vibrating tube method

CCCCn1cc[n+](C)c1.[I-] [1-butyl-3-methylimidazolium iodide] + O
Conditions | mass density, 288.15 K [kg/m3] | mass density, 293.15 K [kg/m3] | mass density, 298.15 K [kg/m3] | mass density, 303.15 K [kg/m3] | mass density, 308.15 K [kg/m3] | speed of sound, 288.15 K [m/s] | speed of sound, 293.15 K [m/s] | speed of sound, 298.15 K [m/s] | speed of sound, 303.15 K [m/s] | speed of sound, 308.15 K [m/s]
m1 = 0.0514 | 1003.51 | 1002.58 | 1001.37 | 999.906 | 998.257 | 1471.2 | 1486.3 | 1500 | 1511.9 | 1522.2
m1 = 0.1017 | 1007.71 | 1006.74 | 1005.46 | 1003.96 | 1002.28 | 1475.6 | 1489.8 | 1503 | 1514.5 | 1524.4
m1 = 0.1497 | 1011.65 | 1010.64 | 1009.32 | 1007.76 | 1006.08 | 1479.5 | 1493.2 | 1505.8 | 1516.8 | 1526.2
m1 = 0.1995 | 1015.69 | 1014.61 | 1013.26 | 1011.7 | 1009.95 | 1483.3 | 1496.4 | 1508.5 | 1519.1 | 1528.1
m1 = 0.2522 | 1019.87 | 1018.75 | 1017.37 | 1015.77 | 1013.98 | 1487.2 | 1499.6 | 1511.4 | 1521.6 | 1530.1
m1 = 0.3025 | 1023.82 | 1022.63 | 1021.27 | 1019.6 | 1017.78 | 1491 | 1502.7 | 1514 | 1523.7 | 1531.9
m1 = 0.3477 | 1027.3 | 1026.08 | 1024.71 | 1023 | 1021.14 | 1494.2 | 1505.2 | 1516.1 | 1525.5 | 1533
m1 = 0.4036 | 1031.57 | 1030.23 | 1028.85 | 1027.14 | 1025.23 | 1498 | 1508.5 | 1519 | 1527.7 | 1534.9
m1 = 0.4508 | 1035.08 | 1033.71 | 1032.38 | 1030.58 | 1028.63 | 1501.1 | 1511.1 | 1521.1 | 1529.7 | 1536.2
m1 = 0.5032 | 1038.95 | 1037.5 | 1036.15 | 1034.41 | 1032.4 | 1504.9 | 1514.1 | 1523.7 | 1531.8 | 1537.6

CCCCn1cc[n+](C)c1.F[B-](F)(F)F [1-butyl-3-methylimidazolium tetrafluoroborate] + O
Conditions | mass density, 288.15 K [kg/m3] | mass density, 293.15 K [kg/m3] | mass density, 298.15 K [kg/m3] | mass density, 303.15 K [kg/m3] | mass density, 308.15 K [kg/m3] | speed of sound, 288.15 K [m/s] | speed of sound, 293.15 K [m/s] | speed of sound, 298.15 K [m/s] | speed of sound, 303.15 K [m/s] | speed of sound, 308.15 K [m/s]
m1 = 0.0514 | 1001.13 | 1000.19 | 998.93 | 997.535 | 995.822 | 1471.9 | 1487.3 | 1500.9 | 1512.8 | 1523
m1 = 0.1056 | 1003.19 | 1002.21 | 1000.85 | 999.439 | 997.645 | 1476.9 | 1492 | 1505 | 1516.2 | 1526
m1 = 0.1559 | 1005.1 | 1004.06 | 1002.6 | 1001.17 | 999.334 | 1481.5 | 1495.9 | 1508.5 | 1519.5 | 1528.8
m1 = 0.201 | 1006.76 | 1005.67 | 1004.18 | 1002.7 | 1000.82 | 1485.3 | 1499.3 | 1511.3 | 1522.1 | 1531.1
m1 = 0.2573 | 1008.83 | 1007.69 | 1006.13 | 1004.58 | 1002.65 | 1490 | 1503.4 | 1515 | 1525.2 | 1533.7
m1 = 0.3001 | 1010.36 | 1009.21 | 1007.59 | 1005.98 | 1004.05 | 1493.2 | 1506.2 | 1517.5 | 1527.3 | 1535.6
m1 = 0.3504 | 1012.17 | 1010.97 | 1009.26 | 1007.63 | 1005.66 | 1496.9 | 1509.5 | 1520.4 | 1529.8 | 1537.7
m1 = 0.4093 | 1014.26 | 1012.98 | 1011.22 | 1009.47 | 1007.54 | 1501.1 | 1513.2 | 1523.6 | 1532.6 | 1540.1
m1 = 0.4506 | 1015.7 | 1014.4 | 1012.58 | 1010.78 | 1008.78 | 1504 | 1515.6 | 1525.8 | 1534.5 | 1541.7
m1 = 0.508 | 1017.7 | 1016.36 | 1014.5 | 1012.56 | 1010.59 | 1507.4 | 1519 | 1528.5 | 1536.8 | 1543.7

CCCCn1cc[n+](C)c1.O=S(=O)([O-])C(F)(F)F [1-butyl-3-methylimidazolium trifluoromethanesulfonate] + O
Conditions | mass density, 288.15 K [kg/m3] | mass density, 293.15 K [kg/m3] | mass density, 298.15 K [kg/m3] | mass density, 303.15 K [kg/m3] | mass density, 308.15 K [kg/m3] | speed of sound, 288.15 K [m/s] | speed of sound, 293.15 K [m/s] | speed of sound, 298.15 K [m/s] | speed of sound, 303.15 K [m/s] | speed of sound, 308.15 K [m/s]
m1 = 0.051 | 1002.68 | 1001.73 | 1000.53 | 999.089 | 997.44 | 1472.8 | 1488 | 1501.7 | 1513.5 | 1523.6
m1 = 0.1023 | 1006.18 | 1005.17 | 1003.9 | 1002.43 | 1000.76 | 1478.5 | 1493.2 | 1506.2 | 1517.4 | 1527
m1 = 0.1499 | 1009.37 | 1008.3 | 1007 | 1005.49 | 1003.78 | 1483.8 | 1497.9 | 1510.2 | 1520.8 | 1529.8
m1 = 0.1996 | 1012.64 | 1011.5 | 1010.17 | 1008.6 | 1006.87 | 1489.1 | 1502.4 | 1514.2 | 1524.5 | 1533
m1 = 0.2496 | 1015.85 | 1014.68 | 1013.28 | 1011.7 | 1009.91 | 1494.2 | 1507 | 1518.1 | 1527.6 | 1535.6
m1 = 0.3019 | 1019.2 | 1017.92 | 1016.52 | 1014.86 | 1013.02 | 1499.2 | 1511.3 | 1521.8 | 1530.8 | 1538.2
m1 = 0.3489 | 1022.13 | 1020.78 | 1019.36 | 1017.64 | 1015.77 | 1503.5 | 1515 | 1525 | 1533.5 | 1540.5
m1 = 0.4034 | 1025.46 | 1024.1 | 1022.57 | 1020.8 | 1018.88 | 1508.2 | 1519 | 1528.4 | 1536.3 | 1542.8
m1 = 0.4532 | 1028.45 | 1027.06 | 1025.5 | 1023.65 | 1021.69 | 1512.3 | 1522.7 | 1531.5 | 1538.9 | 1544.9
m1 = 0.5045 | 1031.5 | 1030.04 | 1028.46 | 1026.57 | 1024.5 | 1517 | 1526.9 | 1534.1 | 1541 | 1546.6
